Measured values as given in patent publication US20220047527A1, “FOOD-AND-DRINK COMPOSITION CONTAINING ASTAXANTHIN” (AstaReal Co., Ltd., priority 2016, published 2022).

Assays:
[1] = system: salivary secretory immunoglobulin A (sIgA); assay: Measurement of salivary secretory immunoglobulin A (EIA); type: in vivo, human
Excerpt: (§1) Salivary cortisol, which was examined as a biochemical index for a mental load, is used as a stress marker because of simplicity of measurement due to the high correlation with blood cortisol, and known to be increased by an acute mental stress, for example, caused at making a speech in front of others or doing mental calculation or by continuous, high-intensity exercise. Because the salivary cortisol concentration is known to show circadian variation, being high in the morning and then declining as the night approaches, mental load application (calculation load; Uchida-Kraepelin test) was performed in the morning in this study. Salivary secretory immunoglobulin A (sIgA) is an antibody produced by B cells that inhibits the proliferation of pathogens on the mucosa of the oral cavity, airway, intestines, and other organs. It is known that reduction of sIgA in saliva is associated with the development of upper respiratory tract infection and that salivary sIgA concentration decreases under chronic stress and increases in a relaxed state.
Saliva samples were collected from the subjects in the morning of the day of assessment (before load application) in the same manner as in (1) of [5-2]. The sIgA concentration in each saliva sample was measured with an enzyme immunoassay (EIA) kit (EIA s-IgA Test Kit, Medical & Biological Laboratories Co., Ltd.).

[2] = previously: 12 mg/day of astaxanthin and 40 mg/day of tocotrienol for eight weeks; cited from earlier work
[3] = system: human having a sense of fatigue; assay: Continuous calculation task (Uchida-Kraepelin test), task performance with a mental load; type: in vivo; settings: after 8-week ingestion, vs control group (FIG. 18)
Protocol: A mental load was applied to each subject by a continuous calculation task with the Uchida-Kraepelin test (Nisseiken Inc., Japan) consisting of two sessions of a 15-min serial addition task (total 30 min), with a 5-min rest period between the first and second sessions. Specifically, the subjects were instructed to sequentially add two adjoining single-digit numbers (combination of 3, 4, 5, 6, 7, 8, and 9), record only the last digit (one's place) of the sum, spend only 1 min on each line, and then quickly move on to the next line of numbers for calculation. This task was continued for 15 min in each session. After the completion of the task, the number of calculations and the number of wrong answers were counted to calculate the percentage of correct answers, and the results for the first session were subtracted from those for the second session to determine change in task performance in the second session, which was used as the task performance with a mental load.

[4] = system: human having a sense of fatigue; assay: OSA sleep analysis (OSA sleep inventory MA version); type: in vivo
Protocol: A placebo-controlled, randomized, double-blind, parallel-group study was employed for ingestion of the test food, and two groups, namely, the control group (placebo group) with ingestion of a capsule not containing astaxanthin and the astaxanthin group with ingestion of a capsule containing 6 mg of astaxanthin (120 mg of Haematococcus algae extract and 10 mg of tocotrienol mixture derived from palm oil) were compared through a double-blind method. For ingestion of the test food, the subjects were instructed to ingest one capsule twice daily (total 12 mg of astaxanthin (240 mg of Haematococcus algae extract and 20 mg of tocotrienol mixture derived from palm oil) in two capsules per day), one after breakfast (or after the first meal of the day if no breakfast was taken) and the other after dinner, with water or lukewarm water within 30 min of eating. The overall duration for ingestion was 8 weeks (12 weeks only for the OSA sleep analysis). The subjects were also instructed to record their test food ingestion, drinking, and exercise in a diary every day, from the first day to the last day of ingestion.
In accordance with a method reported in Yukari Yamamoto, Hideki Tanaka, Miki Takase, Katuo Yamazaki, Kazuo Azumi, and Shuichiro Shirakawa: “Development and standardization of OSA sleep inventory (MA version) for middle-aged and elderly individuals”, Brain Science and Mental Disorders, vol. 10, p 401-409, 1999, the subjects were instructed to evaluate with respect to items listed in the OSA sleep inventory, and the results were analyzed. The assessment was performed once in the morning of the day of assessment (before load application). The OSA sleep inventory (MA version) consists of 16 items in terms of five factors, namely, First factor: sleepiness on rising, Second factor: initiation and maintenance of sleep, Third factor: frequent dreaming, Fourth factor: refreshing, and Fifth factor: sleep length, and the subjects were instructed to answer each question from four choices, and the results were converted to scores with a conversion table for analysis.

salivary cortisol = assay: Measurement of salivary cortisol (CLIA); type: in vivo, human; settings: for salivary cortisol concentration: after 8-week ingestion
Excerpt: as §1
Prior to saliva sampling, the subjects were instructed to brush their teeth and place a cotton swab (Salivette) in the mouth for 2 minutes without chewing to thoroughly soak the cotton swab with saliva. Saliva samples were collected twice, in the morning of the day of assessment (before load application) and after mental load application (calculation load; Uchida-Kraepelin test). Salivary cortisol concentration was measured with a competitive chemiluminescent immunoassay (CLIA) kit (Chemilumi ACS-E Cortisol II; Siemens Healthcare Diagnostics Inc.).

[5] = Study 2: temporal change of human blood (plasma) astaxanthin level on long-term ingestion; type: in vivo
Protocol: This study is a study in humans to confirm how the blood (plasma) astaxanthin level changes through long-term ingestion of astaxanthin. While the blood (serum) astaxanthin level was measured at the completion of ingestion (after 12-week ingestion) in Study 1, Study 2 is, specifically, a study in humans to confirm how the blood (plasma) astaxanthin level behaves in the case that the period of ingestion is shorter than 12 weeks.
Ten healthy Japanese men and women at age of 20 years or older and younger than 50 years
Each subject ingested two capsules per day, each capsule containing 60 mg (6 mg in terms of the free form of astaxanthin) of Haematococcus algae extract and 270 mg of edible fat and oil, with water 30 minutes after breakfast (12 mg/day in terms of the free form of astaxanthin) for 42 days.
Blood sampling was performed one day, six days, 13 days, 20 days, 27 days, 34 days, and 42 days after the initiation of ingestion of the capsules to obtain the plasma. The plasma astaxanthin level was measured by using the method in [5-4] in Study 1 with HPLC.

[6] = system: human having a sense of fatigue; assay: Cycling task on a bicycle ergometer, task performance with a physical load; type: in vivo; settings: between the groups (FIG. 19)
Protocol: A physical load was applied by a cycling task on a bicycle ergometer. Specifically, the subjects were instructed to pedal for 30 min with a rotation rate of the pedal adjusted to maintain the heart rate at 120 to 130 HR for men and 110 to 120 HR for women. The magnitude of the load was set at a constant level of 80 W for men and 70 W for women. The distance cycled (km) in 30 min was measured, which was used as the task performance with a physical load.

[7] = astaxanthin group vs pre-ingestion, no significant difference (FIG. 2)
[8] = 2 capsules/day (12 mg/day free form) for 42 days (FIG. 20)

## CC1=C(/C=C/C(C)=C/C=C/C(C)=C/C=C/C=C(C)/C=C/C=C(C)/C=C/C2=C(C)C(=O)C(O)CC2(C)C)C(C)(C)CC(O)C1=O (stereo not drawn) [astaxanthin, 3,3′-dihydroxy-β,β-carotene-4,4′-dione]
[1]; after 8-week ingestion
  salivary sIgA concentration: 41.9 ± 5.5 µg/mL
[1]; at pre-ingestion (before load application), astaxanthin group
  salivary sIgA concentration: 46.5 ± 8.2 µg/mL
[1]; until week 8 of ingestion vs pre-ingestion (FIG. 8)
  change in salivary sIgA concentration: no significant change
[2]
  adverse event: No adverse event
[3]
  change in the number of wrong answers in the second session, continuous calculation task: significant improvement
  percentage of correct answers in the second session, continuous calculation task: significant improvement
[4]; [7]
  OSA First factor (sleepiness on rising): large increase
  OSA Fourth factor (refreshing): large increase
  OSA Second factor (initiation and maintenance of sleep): large increase
[4]; astaxanthin group, 12 mg/day, vs pre-ingestion (FIG. 2)
  OSA Fifth factor (sleep length): marginally significant increase
[4]; vs literature: 200 mL chamomile tea 1 hour before bedtime over three days
  degree of improvement in Fifth factor (sleep length) compared with chamomile tea: larger
Salivary cortisol; after 4-week ingestion (FIG. 7)
  salivary cortisol concentration after vs before mental load application: significantly lower
Salivary cortisol; after mental load application
  salivary cortisol concentration: 0.38 ± 0.03 µg/dL
Salivary cortisol; before mental load application
  salivary cortisol concentration: 0.44 ± 0.03 µg/dL
[5]; [8]
  human blood (plasma) astaxanthin level at plateau: approximately 200 ng/mL
  time after initiation of ingestion at which plasma astaxanthin level plateaued: about six
[5]; as long as ingestion of astaxanthin-containing food was continued
  human blood (plasma) astaxanthin level during continued ingestion: not lowered
[6]; after 4-week ingestion
  cycling distance: no significant difference
[6]; after 8-week ingestion
  cycling distance: no significant difference
